{"source": "patent US7714014B2", "about": "“Targeting GLI proteins in human cancer by small molecules” (The Regents of the University of California, priority 2005, dated 2010)", "key": {"[1]": {"system": "CaCO2 (colon cancer)", "assay": "Apoptosis analysis (Annexin V FITC, flow cytometry)", "type": "cell-based, human", "settings": "about 3 days", "description": "(§1) Apoptosis was analyzed by using an Annexin V FITC Apoptosis Detection Kit (Biosource, Camarillo, Calif.), according to the manufacturer's protocol. After treatment with different small molecule compounds at various concentrations for about 3 days, cells were harvested by trypsinization, stained and immediately analyzed by flow cytometry (FACScan; Decton Dickinson, Franklin Lake, N.J.). Early apoptotic cells with exposed phosphatidylserine but intact cell membranes will bind to Annexin V-FITC, but not propidium iodide (PI). Cells in necrotic or late apoptotic stages will be labeled with both Annexin V-FITC and PI. “% apoptotic cells” or “% apoptosis” refers to the combined early and late apoptotic cells."}, "[2]": {"system": "H460 (NSCLC)", "assay": "Apoptosis analysis (Annexin V FITC, flow cytometry)", "type": "cell-based, human", "settings": "3 days", "description": "as §1"}, "[3]": {"system": "H838 (NSCLC)", "assay": "Apoptosis analysis (Annexin V FITC, flow cytometry)", "type": "cell-based, human", "settings": "3 days", "description": "as §1"}, "[4]": {"system": "211H (mesothelioma)", "assay": "Apoptosis analysis (Annexin V FITC, flow cytometry)", "type": "cell-based, human", "settings": "3 days", "description": "as §1\nFlow cytometry was used to examine apoptosis in the mesothelioma cell line 211H after treatment of cells with small molecule compounds FN1-5 and FN1-8."}, "[5]": {"system": "Primary cultured mesothelioma", "assay": "Apoptosis analysis (Annexin V FITC, flow cytometry)", "type": "cell-based, human", "settings": "3 days", "description": "Fresh cancer tissue and adjacent normal tissue from patients undergoing curative primary resection of their tumors were collected at the time of surgery (IRB approval H8714-15319-040), and immediately snap-frozen in liquid nitrogen. These tissue samples were kept at −170° C. in a liquid nitrogen freezer until further use. Primary tissue cultures were prepared as follows: Fresh cancer tissue was obtained with consent from patients undergoing resection, cut into small pieces (1-2 mm in diameter), and then digested with Collagenase A (Roche Applied Science, Indianapolis, Ind.) at room temperature for 2 hours according to manufacture's protocol. Single cells from the digestion were spun down and the cell pellets were washed twice using RPMI 1640 supplemented with 10% fetal bovine serum, penicillin (100 IU/ml) and streptomycin (100 μg/ml). Then, the cells were resuspended in the same medium and cultured in 6-well plates at 37° C. in a humid incubator with 5% CO2 until they were ready for further treatments.\nas §1\nNext, flow cytometry was used to examine apoptosis after the treatment of small molecule compound FN1-5 at different doses (10 μM, 30 μM and 50 μM) for 3 days in primary cultured human mesothelioma cells freshly made from tissue samples."}, "[6]": {"system": "melanoma cell line LOX", "assay": "Cell survival assay (crystal violet)", "type": "cell-based, human", "settings": "for cell killing effect: 3 days", "description": "(§2) Typically, the small molecule compounds of the present invention were dissolved in DMSO at a concentration of 30 mM. The small molecule compounds were then tested under cell culture conditions at different concentrations ranging from 0, 10, 30, 50, to 100 uM. To determine cell survival after treatment, the cells were incubated with the small molecule compounds in 6-well plates for about 3 days. After removal of the cell culture medium, 1-ml of 0.5% crystal violet solution (prepared in 20% ethanol and 20% methanol) was added to stain the cells for 5 min. Then the crystal violet solution was rinsed clean with tap water. Cell survival was estimated based on the density of crystal stained plates.\nThe effect of small molecule compounds FN1-5, FN1-8, FN1-7, FN1-9U, and FN1-9S was tested using a cytotoxicity assay and the melanoma cell line LOX. LOX cells were plated in 6-well plates and incubated with 100 μM of each compound (stocks were dissolved in DMSO at 30 mM) for 3 days, as described herein. […] Live cells were stained by 0.5% crystal violet.\nCell killing was also tested using human melanoma cell line LOX and different doses of the small molecule compounds FN1-5 and FN1-8. LOX cells were plated in 6-well plates and incubated with 10, 30, and 50 μM of each compound for 3 days, as described herein."}, "[7]": {"system": "human pancreatic cancer cell lines L3.6sl, Panc4.21, BxPC3, and CFPAC-1", "assay": "Cell survival assay (crystal violet)", "type": "cell-based", "settings": "for cell killing: 50 μM, all pancreatic lines analyzed", "description": "as §2\nThe cell-based cytotoxicity assay described herein was used to determine the effect of small molecule compounds FN1-5 and FN1-8 on the human pancreatic cancer cell lines L3.6sl, Panc4.21, BxPC3, and CFPAC-1. Viability of these cells was analyzed after treatment with 10, 30 and 50 μM FN1-5 or FN1-8. […] However, cell killing mediated by FN1-5 in Panc4.21 was less when compared to its effect on the three other pancreatic cancer cell lines."}, "[8]": {"system": "human ovarian cancer cell line AZ23247", "assay": "Cell survival assay (crystal violet)", "type": "cell-based", "settings": "AZ23247, 30 μM and 50 μM", "description": "as §2\nThe cell-based cytotoxicity assay described herein was used to determine the effect of small molecule compounds FN1-5 and FN1-8 in the human ovarian cancer cell line AZ23247. Viability of AZ23247 cells was analyzed after treatment with 10, 30 and 50 μM FN1-5 or FN1-8."}, "[9]": {"system": "human renal cell carcinoma cell lines 786-O, Caki, and OMRC3", "assay": "Cell survival assay (crystal violet)", "type": "cell-based", "settings": "for cell killing: 50 μM", "description": "as §2\nThe cell-based cytotoxicity assay described herein was used to determine the effect of small molecule compounds FN1-5 and FN1-8 in the human renal cell carcinoma cell lines 786-O, Caki, and OMRC3. Viability of these cells was analyzed after treatment with 10, 30 and 50 μM FN1-5 or FN1-8."}, "[10]": {"system": "human gastric cancer cell lines NUGC3, MNK28, and AGS", "assay": "Cell survival assay (crystal violet)", "type": "cell-based", "settings": "for cell killing: 50 μM", "description": "as §2\nThe cell-based cytotoxicity assay described herein was used to determine the effect of small molecule compounds FN1-5 and FN1-8 in the human gastric cancer cell lines NUGC3, MNK28, and AGS. Viability of these cells was analyzed after treatment with 10, 30 and 50 μM FN1-5 or FN1-8."}, "[11]": {"system": "Tcf-mediated gene transcription (canonical Wnt signaling) in colon cancer cell line HCT116", "assay": "TOPFLASH (TOP/FOP) assay", "type": "cell-based, human", "settings": "HCT116, 30 μM; for TOP/FOP activity: 18-24 hours", "description": "Cells were plated in 12-well plates. The TOPFLASH or FOPFLASH reporter plasmid (Upstate; Charlottesville, Va.) was transfected transiently into cells as described above. Tcf-mediated gene transcription was determined by the ratio of pTOPFLASH:pFOPFLASH luciferase activity, each was normalized to luciferase activities of the pRL-TK reporter (co-transfected internal control). All experiments were performed in triplicate, and repeated three times.\nAs another specificity test of the small molecule compounds of the invention, it was tested whether small molecule compounds FN1-5, FN1-7, FN1-8, FN1-9U, FN1-9S, FN2-1, and FN3-5 could regulate the transcription activity of the canonical Wnt signaling by using TOP/FOP assay."}}, "data": [{"compound": "O=C(NCCCCCO)C1C(c2ccccc2)=NN(c2ccccc2)C1c1ccccc1", "note": "(stereo not shown) [FN1-5, N-(5-Hydroxypentyl)-1,3,5-triphenyl-4,5-dihydro-pyrazole-4-carboxyamide]", "values": [{"measurement": "% of apoptotic cells", "setting": "[1]; CaCO2, 10 μM", "value": 8.2, "unit": "%"}, {"measurement": "% of apoptotic cells", "setting": "[1]; CaCO2, 30 μM", "value": 19.8, "unit": "%"}, {"measurement": "% of apoptotic cells", "setting": "[1]; CaCO2, 50 μM", "value": 30.3, "unit": "%"}, {"measurement": "% of apoptotic cells", "setting": "[2]; H460, 30 μM", "value": 11.9, "unit": "%"}, {"measurement": "% of apoptotic cells", "setting": "[2]; H460, 50 μM", "value": 15.7, "unit": "%"}, {"measurement": "% of apoptotic cells", "setting": "[3]; H838, 30 μM", "value": 14.2, "unit": "%"}, {"measurement": "% of apoptotic cells", "setting": "[3]; H838, 50 μM", "value": 20.0, "unit": "%"}, {"measurement": "% of apoptotic cells", "setting": "[4]; 10 μM", "value": 7.7, "unit": "%"}, {"measurement": "% of apoptotic cells", "setting": "[4]; 30 μM", "value": 37.5, "unit": "%"}, {"measurement": "% of apoptotic cells", "setting": "[5]; 10 μM", "value": 12.3, "unit": "%"}, {"measurement": "% of apoptotic cells", "setting": "[5]; 30 μM", "value": 15.8, "unit": "%"}, {"measurement": "% of apoptotic cells", "setting": "[5]; 50 μM", "value": 18.3, "unit": "%"}, {"measurement": "cell killing effect", "setting": "[6]; 50 μM", "value": "Dramatic cell killing effect"}, {"measurement": "cell killing effect", "setting": "[6]; 100 μM", "value": "dramatic cell killing effect"}, {"measurement": "cell killing", "setting": "[7]", "value": "dramatic cell killing"}, {"measurement": "cell killing in Panc4.21 compared to the three other pancreatic cancer cell lines", "setting": "[7]; Panc4.21", "value": "less"}, {"measurement": "cell killing", "setting": "[8]", "value": "dramatic cell killing"}, {"measurement": "cell killing", "setting": "[9]", "value": "dramatic cell killing"}, {"measurement": "cell killing", "setting": "[10]", "value": "dramatic cell killing"}, {"measurement": "TOP/FOP activity", "setting": "[11]", "value": "down-regulate TOP/FOP activity dramatically"}]}, {"compound": "O=C(NCCc1ccc(O)cc1)C1C(c2ccccc2)=NN(c2ccccc2)C1c1ccccc1", "note": "(stereo not shown) [FN1-8, N-(2-(4-Hydroxyphenyl)ethyl)-1,3,5-triphenyl-4,5-dihydro-pyrazole-4-carboxyamide]", "values": [{"measurement": "% of apoptotic cells", "setting": "[1]; CaCO2, 30 μM", "value": 19.9, "unit": "%"}, {"measurement": "% of apoptotic cells", "setting": "[1]; CaCO2, 50 μM", "value": 39.4, "unit": "%"}, {"measurement": "% of apoptotic cells", "setting": "[2]; H460, 30 μM", "value": 12.1, "unit": "%"}, {"measurement": "% of apoptotic cells", "setting": "[2]; H460, 50 μM", "value": 75.2, "unit": "%"}, {"measurement": "% of apoptotic cells", "setting": "[3]; H838, 10 μM", "value": 10.6, "unit": "%"}, {"measurement": "% of apoptotic cells", "setting": "[3]; H838, 30 μM", "value": 18.3, "unit": "%"}, {"measurement": "% of apoptotic cells", "setting": "[3]; H838, 50 μM", "value": 82.3, "unit": "%"}, {"measurement": "% of apoptotic cells", "setting": "[4]; 10 μM", "value": 5.6, "unit": "%"}, {"measurement": "% of apoptotic cells", "setting": "[4]; 30 μM", "value": 30.7, "unit": "%"}, {"measurement": "% of apoptotic cells", "setting": "[5]; 10 μM", "value": 13.2, "unit": "%"}, {"measurement": "% of apoptotic cells", "setting": "[5]; 30 μM", "value": 14.7, "unit": "%"}, {"measurement": "% of apoptotic cells", "setting": "[5]; 50 μM", "value": 33.6, "unit": "%"}, {"measurement": "cell killing effect", "setting": "[6]; 50 μM", "value": "Dramatic cell killing effect"}, {"measurement": "cell killing effect", "setting": "[6]; 100 μM", "value": "dramatic cell killing effect"}, {"measurement": "cell killing potency compared with FN1-5", "setting": "[6]; compared at 30 μM", "value": "more potent than FN1-5"}, {"measurement": "cell killing", "setting": "[7]", "value": "dramatic cell killing"}, {"measurement": "cell killing", "setting": "[8]", "value": "dramatic cell killing"}, {"measurement": "cell killing potency compared with FN1-5", "setting": "[9]", "value": "more potent"}, {"measurement": "cell killing", "setting": "[9]", "value": "dramatic cell killing"}, {"measurement": "cell killing potency compared with FN1-5", "setting": "[10]", "value": "more potent"}, {"measurement": "cell killing", "setting": "[10]", "value": "dramatic cell killing"}, {"measurement": "reduction of TOP/FOP activity", "setting": "[11]", "value": "about 36%"}, {"measurement": "TOP/FOP activity", "setting": "[11]", "value": "down-regulate TOP/FOP activity dramatically"}]}]}
